Measured values: PMC2747801 (European journal of pharmaceutical sciences : official …, 2009)
Values joined by “and” are separate entries in the source; they are usually repeats but may differ in a detail not shown here. Equal entries are not always repeated. Where two headings read alike, the source gives them in different places.

How the values were obtained:
[1] = tested on: P-glycoprotein (Pgp); test: Pgp effect: ratio of Pgp-deficient to wild-type uptake clearance; settings: for Pgp Effect: ratio of Pgp-deficient Kin to wild-type Kin, CF-1 mice
[2] = cited from earlier work
[3] = male, CF-1, mouse, in vivo, 1 µM, pH 7.4
[4] = for Pgp Mutant Kin / logPS(obs): male, pH 7.4; for logPS(obs) / brain uptake clearance: in vivo
[5] = PAMPA intrinsic permeability, cited from earlier work
[6] = cited from earlier work; remark: listed apart in the source
[7] = tested on: P-glycoprotein (Pgp); settings: male, CF-1, mouse, not told, pH 7.4
[8] = rat, cited from earlier work
[9] = rodent and comment not printed ref Fernstermacher 1989; cited from earlier work
[10] = rat, 5-50uM self-inhibition, training set ref Summerfield et al. 2007

Structure (SMILES) | logPo^PAMPA | Pgp Effect [1] | Wild-Type Kin [3] | Pgp Mutant Kin ([4]; CF-1, mouse, 1 µM) | logPS(obs) ([4]; CF-1, mouse, 1 µM) | other results
CCCN1C[C@H](C)N([C@H](c2ccc(C(=O)N(CC)CC)cc2)c2cccc(OC)c2)C[C@H]1C [SNC121] | −1.24 |  |  |  |  | Pgp effect ratios ([1]; compounds with down-step in rank classification for wild-type PS values (Fig. 3)): 8.6; logPS(obs) ([2]; mouse, in vivo): −1.44 mL/g/s
CN(C)CCC=C1c2ccccc2CCc2ccccc21 [amitriptyline] |  | 1.2 | 335 mL/100g/min | 408 mL/100g/min | −0.66 mL/g/s | brain uptake clearance ([4]; mouse): > 255 mL/100 g/min; logPo^PAMPA ([5]; ref Avdeef et al. 2006): 1.30; logPS(obs) [6, 10]: −1.05 mL/g/s
COc1ccc(CCN2CCC(Nc3nc4ccccc4n3Cc3ccc(F)cc3)CC2)cc1 [astemizole] |  |  | 112 mL/100g/min | 123 mL/100g/min | −1.55 mL/g/s | Pgp Effect [7]: 1.1; logPo^PAMPA ([5]; ref Bendels et al. 2006): 1.00
O=C1CC2(CCCC2)CC(=O)N1CCCCN1CCN(c2ncccn2)CC1 [buspirone] |  | 1.0 | 325 mL/100g/min | 341 mL/100g/min |  | 
NC(=O)N1c2ccccc2C=Cc2ccccc21 [carbamazepine] | −3.73 | 1.1 | 173 mL/100g/min | 184 mL/100g/min | −1.26 mL/g/s | logPS(obs) [6, 10]: −1.75 mL/g/s
CN(C)CCCN1c2ccccc2Sc2ccc(Cl)cc21 [chlorpromazine] |  | 1.0 | 300 mL/100g/min | 295 mL/100g/min | −1.08 mL/g/s | brain uptake clearance ([4]; mouse): > 255 mL/100 g/min; logPo^PAMPA ([5]; ref Avdeef et al. 2004, Ruell et al. 2004): 1.62; logPS(obs) [6, 10]: −1.20 mL/g/s
CN/C(=N/CCSCc1nc[nH]c1C)NC#N [cimetidine] |  |  |  |  |  | logPS(obs) ([2]; mouse ref Murakami et al. 2000): −4.10 mL/g/s; logPo^PAMPA ([5]; ref Avdeef et al. 2005): −6.20; logPS(obs) ([6]; rat ref Murakami et al. 2000): −4.05 mL/g/s
CN1CCN(C2=Nc3cc(Cl)ccc3Nc3ccccc32)CC1 [clozapine] | −0.39 |  | 118 mL/100g/min | 90 mL/100g/min | −1.73 mL/g/s | 
CN1CC(=O)NC1=N [creatinine] | −7.52 |  |  |  |  | logPS(obs) ([8]; i.v. ref Levin 1980): −4.55 mL/g/s and −4.70 mL/g/s
NCC1(CC(=O)O)CCCCC1 [gabapentin] | −3.36 |  |  |  |  | Pgp Effect [7]: 1.7; logPS(obs) ([4]; mouse): −2.34 mL/g/s; Pgp Mutant Kin ([4]; mouse): 26 mL/100g/min; logPS(obs) ([6]; rat, in vivo): −2.56 mL/g/s
COc1ccc2c3c1O[C@H]1C[C@@H](O)C=C[C@@]31CCN(C)C2 [galanthamine] | −3.15 |  |  |  |  | Pgp Effect [7]: 1.1; logPS(obs) ([4]; mouse): −2.46 mL/g/s; Pgp Mutant Kin ([4]; mouse): 20 mL/100g/min
COc1ccc(Cl)cc1C(=O)NCCc1ccc(S(=O)(=O)NC(=O)NC2CCCCC2)cc1 [glibenclamide] |  |  |  |  |  | logPS(obs) ([2]; mouse ref Murakami et al. 2000): −3.27 mL/g/s; logPo^PAMPA ([5]; ref Bendels et al. 2006): −2.54; logPS(obs) ([6]; rat ref Murakami et al. 2000): −2.77 mL/g/s
CC(C)(C)NC(=O)[C@@H]1CN(Cc2cccnc2)CCN1C[C@@H](O)C[C@@H](Cc1ccccc1)C(=O)N[C@H]1c2ccccc2C[C@H]1O [indinavir] |  |  | 0.52 mL/100g/min |  |  | 
N[C@H](Cc1ccc(F)cc1)C(=O)O [p-F-D-phenylalanine] |  | 1.1 |  |  |  | 
N[C@@H](Cc1ccc(F)cc1)C(=O)O [p-F-L-phenylalanine] |  | 1.1 |  |  |  | 
O=C1NC(=O)C(c2ccccc2)(c2ccccc2)N1 [phenytoin] |  |  |  |  |  | logPS(obs) [9]: −2.30 mL/g/s; logPo^PAMPA ([5]; ref Ruell et al. 2004): −4.32; logPS(obs) ([6]; rat ref Liu et al. 2004): −2.20 mL/g/s; logPS(obs) [6, 10]: −2.07 mL/g/s
CCCN(CCC)S(=O)(=O)c1ccc(C(=O)O)cc1 [probenecid] |  | 1.4 | 0.069 mL/100g/min | 0.098 mL/100g/min | −4.79 mL/g/s | logPo^PAMPA ([5]; ref Ruell et al. 2004): −1.83
CC(C)(C)NC(=O)[C@@H]1C[C@@H]2CCCC[C@@H]2CN1C[C@@H](O)[C@H](Cc1ccccc1)NC(=O)[C@H](CC(N)=O)NC(=O)c1ccc2ccccc2n1 [saquinavir] | −3.69 |  | 2.9 mL/100g/min | 11 mL/100g/min | −2.73 mL/g/s | 
CN[C@H]1CC[C@@H](c2ccc(Cl)c(Cl)c2)c2ccccc21 [sertraline] | 2.10 | 1.0 |  |  |  | 
CC(C)(C)c1ccc(C(O)CCCN2CCC(C(O)(c3ccccc3)c3ccccc3)CC2)cc1 (stereo not drawn) [terfenadine] |  |  | 126 mL/100g/min | 129 mL/100g/min | −1.52 mL/g/s | logPo^PAMPA ([5]; ref Ruell et al. 2004, Avdeef et al. 2007): 2.63
Cn1c(=O)c2[nH]cnc2n(C)c1=O [theophylline] |  |  |  |  |  | logPS(obs) ([2]; mouse ref Murakami et al. 2000): −3.26 mL/g/s; logPo^PAMPA ([5]; ref Avdeef et al. 2006): −5.99; logPS(obs) ([6]; rat ref Liu et al. 2004): −2.90 mL/g/s; logPS(obs) ([6]; rat ref Murakami et al. 2000): −2.81 mL/g/s
CC[C@]1(O)C[C@H]2CN(CCc3c([nH]c4ccccc34)[C@@](C(=O)OC)(c3cc4c(cc3OC)N(C=O)[C@H]3[C@@](O)(C(=O)OC)[C@H](OC(C)=O)[C@]5(CC)C=CCN6CC[C@]43[C@@H]65)C2)C1 [vincristine] | −2.72 |  |  |  |  | logPS(obs) ([2]; mouse ref Murakami et al. 2000): −4.12 mL/g/s; logPS(obs) ([2]; mouse, mdr1a(−/−) ref Cisternino et al. 2001): −3.82 mL/g/s; logPS(obs) ([2]; mouse, mrp1(−/−), footnote x ref Cisternino et al. 2003): −4.25 mL/g/s; logPS(obs) [9]: −4.00 mL/g/s; logPS(obs) ([6]; rat ref Greig et al. 1990): −3.91 mL/g/s; logPS(obs) ([6]; rat ref Murakami et al. 2000): −4.10 mL/g/s
Cc1cn([C@H]2C[C@H](N=[N+]=[N-])[C@@H](CO)O2)c(=O)[nH]c1=O [zidovudine] | −5.79 |  |  |  |  | logPS(obs) ([8]; i.v. ref Wu et al. 1998): −3.99 mL/g/s
